Data from patent US20240277692A1, “1,2-DIHYDROQUINOLINE-2-ONES FOR THEIR USE IN THE TREATMENT OF LIMB-GIRDLE MUSCULAR DYSTROPHY” (CONSEJO SUPERIOR DE INVESTIGACIONES CIENTÍFICAS, priority 2021, published 2024).

Experiments:
mTOR pathway [1] = assay: Western blot of mTOR pathway protein in skin fibroblasts; assay type: cell-based, human; details: VP0.7 1.2 μM, 48 h
Method: (§1) Skin fibroblasts from healthy controls and from LGMDR1 patients were provided by Dr. Ana Aiastui (Biodonostia Health Research Institute, Cell Culture and Histology Platform). Cells were cultured in Dulbecco's modified Eagle's medium (DMEM, Gibco, 41966-029) supplemented with 10% FBS (Gibco, 10270-106) and 1% penicillin-streptomycin (Gibco, 15140-122) at 37° C. in a 5% CO2 air incubator. Human fibroblasts were cultured at a density of 4×10^4 cells/ml.
(§2) VP0.7 was provided by Dr. Ana Martínez (from The Center for Biological Research, CSIC). It was administered at 1.2 μM, whereas LiCl (Sigma-Aldrich, L7026) was used for comparative purposes at a final concentration of 10 mM. VP0.7 and LiCl were administered at the above referred concentrations to myotubes at eight days of differentiation, and VP0.7 also to skin fibroblasts and to CD56-cells. Negative controls, in the case of VP0.7, were performed with DMSO (Fisher Scientific, BP-231). At 48 hours after drug administration, RNA and proteins were extracted.
(§3) Protein collection from muscle samples and cell cultures, as well as Western blot procedure, were performed as previously described (Jaka et al., Expert Reviews in Molecular Medicine, 2017, 19, e2).

mTOR pathway [2] = assay: Western blot of mTOR pathway proteins in CD56- cells; assay type: cell-based, human; details: VP0.7 1.2 μM, 48 h
Description: (§4) To obtain primary myoblasts, muscle biopsies were processed and cultured in monolayer according to the method described by Askanas (Neurology, 1975, 25, 58-67). To isolate the pure population of myoblasts and CD56-negative cells (CD56-), the protocol described previously (Jaka et al., Expert Reviews in Molecular Medicine, 2017, 19, e2) was used, using immunomagnetic separation based on the early presence of the surface marker CD56 (Miltenyi Biotec, 130-050-401).
as §2, §3

Wnt pathway [3] = assay: Western blot of Wnt pathway proteins in CD56- cells; assay type: cell-based, human; details: VP0.7 1.2 μM, 48 h
Description: as §4, §2, §3

integrin β1D and melusin = assay: Western blot of costamere structural proteins in human myotubes; assay type: cell-based; details: VP0.7 1.2 μM, 48 h
Method: as §2, §3
Likewise, the expression of some of the structural proteins that are part of the costamere, whose expression is altered in LGMDR1 patients, was analysed. After drug administration, an increase in integrin β1D and melusin was also observed (FIG. 2E).

GSK3 [4] = target: GSK3 (Homo sapiens, UniProt P49841); details: highly selective and allosteric modulator; Luna-Medina 2007, Palomo 2011; cited from earlier work
Sequence of GSK3 (Homo sapiens, UniProt P49841) (P49841 whole entry): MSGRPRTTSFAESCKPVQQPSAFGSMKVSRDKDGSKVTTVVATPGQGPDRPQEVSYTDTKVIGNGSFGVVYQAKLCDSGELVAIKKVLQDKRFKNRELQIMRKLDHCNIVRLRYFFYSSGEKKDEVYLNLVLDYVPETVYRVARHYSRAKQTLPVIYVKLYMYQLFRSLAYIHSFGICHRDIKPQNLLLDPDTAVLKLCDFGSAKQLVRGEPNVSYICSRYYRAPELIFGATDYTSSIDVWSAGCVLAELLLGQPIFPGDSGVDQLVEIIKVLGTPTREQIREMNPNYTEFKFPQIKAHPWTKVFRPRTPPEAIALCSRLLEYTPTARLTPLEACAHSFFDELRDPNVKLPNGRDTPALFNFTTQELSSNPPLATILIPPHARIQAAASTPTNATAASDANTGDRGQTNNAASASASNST

Wnt pathway [5] = assay: Western blot of Wnt pathway proteins in human myotubes after drug administration; assay type: cell-based; details: for active β-catenin: myotubes
Method: as §4
(§5) Myoblasts were cultured in proliferation medium (DMEM, M-199, Insulin, Glutamine and penicillin-streptomycin) with 10% FBS and growth factors at 37° C. in 5% CO2 air incubator. When myoblasts reached confluence, the FBS concentration was reduced to 2% and growth factors were removed from the medium, promoting fusion and production of myotubes.
as §2, §3
We proceeded to analyse the expression of the GSK3β protein, as well as its downstream effect on the Wnt pathway in myotubes from controls and patients after drug administration. […] As a control assay, lithium was administered and an increase in active β-catenin was verified (FIG. 2C).

Akt/mTOR pathway = assay: Western blot of Akt/mTOR pathway proteins in human myotubes; assay type: cell-based
Method: as §4, §5, §2, §3
Furthermore, downstream of the mTOR pathway, the p70S6K and RPS6 proteins were analysed. After administration of VP0.7, the expression of total p70S6K, its phosphorylation (Thr421/Ser424 and Thr389), as well as the levels of phosphorylation of the RPS6 protein (Ser235/Ser236) increased in the patient's sample. In the control, the effect observed after the treatments is very slight (FIG. 3B).
For comparative purposes, LiCl was also administered in control and patient's myotubes and the phosphorylation of p70S6K and RPS6 proteins were also tested. The results are depicted in FIG. 4.

Wnt pathway [6] = assay: Western blot of Wnt pathway proteins in skin fibroblasts; assay type: cell-based, human; details: VP0.7 1.2 μM, 48 h
Method: as §1, §2, §3

[7] = tested on: CAPN3, FOS, ANOS1 and ITGB1BP2 genes; assay: Quantitative real-time PCR of deregulated genes in LGMDR1 myotubes; assay type: cell-based, human; details: VP0.7 1.2 μM, 48 h
Method: as §2
RNA extraction from primary myoblast/myotubes was performed with an RNeasy Mini Kit (Qiagen). In the case of the muscle biopsies, which were snap frozen and stored at −80° C. until use, total RNA was obtained using an RNA-Plus Kit (QBiogene).
The isolated RNA was reverse-transcribed to first-strand complementary DNA (cDNA) in a final volume of 50 μl using a High Capacity cDNA Reverse Transcription Kit (Applied Biosystems), according to the manufacturer's instructions. The expression levels of CAPN3, FOS, ITGB1BP2, ANOS1 and GAPDH genes in the samples were assessed by real-time quantitative PCR with TaqMan probes (Table Il below) using the ‘CFX384 Real-Time PCR Detection System’ (Bio-Rad).
On the other hand, in previous studies we had already described that activating the Wnt pathway through the silencing of the FRZB gene or with treatment with lithium, the expression of some altered genes in the muscle of patients was recovered (Jaka et al., Expert Reviews in Molecular Medicine, 2017, 19, e2; Casas-Fraile et al., Orphanet Journal of Rare Diseases, 2020, 15(1), 119). Thus, their expression was analysed after administering VP0.7.

GSK3β = details: low dose, Whitley et al. 2020, cited from earlier work
FRBZ gene, β1D integrin = details: LiCl treatment, cited from earlier work
GSK3 [8] = details: low therapeutic dose 0.5 mM, Kurgan et al. 2019; cited from earlier work
[9] = VP0.7 1.2 μM, 48 h, patient's myotubes
[10] = VP0.7 1.2 μM, 48 h, patient's sample, myotubes
[11] = VP0.7 1.2 μM, myotubes, control 13-05, relative to the same sample without treatment
[12] = VP0.7 1.2 μM, myotubes, patient 09-25, relative to the same sample without treatment
[13] = LiCl 10 mM, drug administration +, myotubes, control 09-23
[14] = LiCl 10 mM, drug administration +, myotubes, control 13-07
[15] = LiCl 10 mM, drug administration +, myotubes, patient 09-21
[16] = LiCl 10 mM, drug administration +, myotubes, patient 09-24
[17] = LiCl 10 mM, drug administration +, myotubes, patient 09-25

## CCCCCCCCCCCC(=O)NNC(=O)c1c(O)c2ccccc2n(CC)c1=O [VP0.7, N′-dodecanoyl-1-ethyl-4-hydroxy-2-oxo-1,2-dihydroquinoline-3-carbohydrazide]
mTOR pathway [1]
  phosphorylation of RPS6: very slight increase
mTOR pathway [2]
  mTOR: no differences
  phosphorylation of RPS6: no differences
  phosphorylation of p70S6K: no differences
Wnt pathway [3]
  active form of β-catenin: no significant alteration
  amount of total β-catenin: no significant alteration
Integrin β1D and melusin
  integrin β1D: increase
  melusin: increase
GSK3 [4]
  inhibition of GSK3: reversibly inhibits
Wnt pathway [5]; VP0.7 1.2 μM, 48 h, myotubes day 8 of differentiation, controls and LGMDR1 patients
  total β-catenin expression: increase
Wnt pathway [5]; VP0.7 1.2 μM, 48 h, controls and LGMDR1 patients
  active β-catenin: increase
Wnt pathway [5]; myotubes after drug administration
  inhibition of GSK3β kinase: effective inhibition
Akt/mTOR pathway; VP0.7 1.2 μM, 48 h, control myotubes
  effect on p70S6K and RPS6 expression/phosphorylation: very slight
Akt/mTOR pathway; [9]
  phosphorylation of mTOR (Ser2448): significant increase
  phosphorylation of mTOR (Ser2481): significant increase
  total mTOR: no significant changes
Akt/mTOR pathway; [10]
  expression of total p70S6K: increased
  p70S6K phosphorylation (Thr389): increased
  p70S6K phosphorylation (Thr421/Ser424): increased
  phosphorylation of the RPS6 protein (Ser235/Ser236): increased
Akt/mTOR pathway; VP0.7 1.2 μM, myotubes, control 13-05, protein expression value relative to the same sample without treatment
  P-p70S6K (T421-S424): 1
Akt/mTOR pathway; [11]
  P-RPS6 (S235-S236): 1.1
  P-p70S6K (T389): 0.94
Akt/mTOR pathway; VP0.7 1.2 μM, myotubes, patient 09-25, protein expression value relative to the same sample without treatment
  P-p70S6K (T421-S424): 1.6
Akt/mTOR pathway; [12]
  P-RPS6 (S235-S236): 2.8
  P-p70S6K (T389): 1.6
Wnt pathway [6]
  active form of β-catenin: did not show an increase
  phosphorylation of GSK3β(Ser9): did not show an increase
  β-catenin: did not show an increase
[7]
  expression of ANOS1: increase
  expression of CAPN3: increase
  expression of FOS: increase
  expression of ITGB1BP2: increase

## [Cl-].[Li+] [LiCl, reference compound]
GSK3β
  inhibition of GSK3β: effective in inhibiting
GSK3β; via NFAT activation
  fatigue resistance in some muscles: enhances
FRBZ gene, β1D integrin; Jaka et al. 2017
  expression of the FRBZ gene: lower levels
FRBZ gene, β1D integrin; primary myotubes
  β1D adult isoform of the integrin: higher levels
GSK3 [8]
  inhibition of GSK3: inhibit
  myoblast fusion: augment
Wnt pathway [5]; LiCl 10 mM, 48 h, control assay
  active β-catenin: increase
Akt/mTOR pathway; LiCl 10 mM, 48 h, control and patient's myotubes
  proteins involved in the mTOR pathway and their phosphorylation forms: did not provide any increase
Akt/mTOR pathway; [13]
  P-RPS6 (S235-S236): 3.8
  P-p70S6K (T421-S424): 0.78
Akt/mTOR pathway; [14]
  P-RPS6 (S235-S236): 3
  P-p70S6K (T421-S424): 0.7
Akt/mTOR pathway; [15]
  P-RPS6 (S235-S236): 1.5
  P-p70S6K (T421-S424): 0.5
Akt/mTOR pathway; [16]
  P-RPS6 (S235-S236): 3
  P-p70S6K (T421-S424): 1.4
Akt/mTOR pathway; [17]
  P-RPS6 (S235-S236): 2.5
  P-p70S6K (T421-S424): 0.65
